Calls of active or inactive are those of the source.
Legend:
[1] = Dd2 parasite growth inhibition in erythrocytes – SYBR Green, dry powder samples, set 9, dose response (AID 1159568); type: functional, cell-based
[2] = tested on: Vero; assay: cells; type: functional; details: Chlorocebus sabaeus
[3] = cells; type: functional, cell-based
[4] = Luminescence Cell-Based Dose Retest to Confirm Inhibitors of Cancer Stem Cells. [Related pubchem assays (depositor defined):AID2717, AID2721]; type: functional; details: Homo sapiens
[5] = MIN6 cell viability loss – mouse insulinoma, cytotoxicity control, dose response (AID 2122); type: functional;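 note: confirmatory high-throughput counterscreen run to flag cytotoxic compounds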
[6] = target: E3 ubiquitin-protein ligase Mdm2 (Homo sapiens, UniProt Q00987); assay: MDM2-luc reporter signal enhancers, multi-concentration potency testing, MDM2 ubiquitin-protein ligase inhibitor program, whole-cell format, luminescence detection, 384-well microplate (AID 1394); type: functional;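 note: MDM2 E3 inhibitors raise luminescence so EC50 is for signal enhancement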
[7] = decrease of insulin promoter-GFP reporter – imaging, high-content screening, mouse beta cells (AID 1628); type: functional; details: MIN6
[8] = viability of uninfected HEp-2 cells – cell-based, HTS, cytotoxicity control for RSV inhibitor project, dose response (AID 2410); type: functional; details: human respiratory syncytial virus
[9] = target: T1, Nuclear receptor subfamily 0 group B member 1 (Homo sapiens, UniProt P51843); type: functional, cell-based;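 note: HEK293T cells transfected with SF-1 and DAX-1 plus StAR promoter luciferase reporter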
T1 sequence (P51843 whole entry): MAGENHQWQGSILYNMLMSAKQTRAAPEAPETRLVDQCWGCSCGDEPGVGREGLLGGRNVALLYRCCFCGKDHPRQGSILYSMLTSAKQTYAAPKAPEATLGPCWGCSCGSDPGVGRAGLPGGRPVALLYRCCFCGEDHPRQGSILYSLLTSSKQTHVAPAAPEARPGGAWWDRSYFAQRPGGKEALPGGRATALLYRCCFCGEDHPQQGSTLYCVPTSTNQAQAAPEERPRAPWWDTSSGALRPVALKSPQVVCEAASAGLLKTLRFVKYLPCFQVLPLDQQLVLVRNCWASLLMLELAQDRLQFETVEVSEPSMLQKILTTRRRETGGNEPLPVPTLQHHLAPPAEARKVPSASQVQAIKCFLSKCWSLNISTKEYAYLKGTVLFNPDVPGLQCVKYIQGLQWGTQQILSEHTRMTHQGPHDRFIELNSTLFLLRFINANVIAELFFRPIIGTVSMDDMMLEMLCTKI

[10] = viability loss in A549 lung cells – cell-based, 24 h, CellTiter-Glo luminescence, cherry-picks, cytotoxicity control, dose response (AID 1053115); type: functional; details: A549, 24 h
[11] = IC50 of Artemis nuclease activity blockers – biochemical, fluorescence intensity, dose response (AID 720701); type: functional;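 note: Artemis endonuclease enzyme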
[12] = viability inhibitors of stage V gametocytes – luminescence, dose response (AID 1117278); type: functional, cell-based;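 note: gametocytes exposed to compound for 24 hours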
[13] = viability loss in human Jurkat cells – cell-based, luminescence, cytotoxicity control for P. falciparum gametocyte viability project, dose response (AID 1117277); type: functional;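 note: potency reflects loss of cellular ATP meaning fewer viable cells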
[14] = Late-stage results from the probe development effort to identify antagonists of arginine vasopressin receptor 1a (AVPR1a): fluorescence-based cell-based dose response OXTR inhibition counterscreen assay.; type: functional
[15] = target: Vasopressin V1b receptor (Homo sapiens, UniProt P47901); assay: Late-stage results from the probe development effort to identify antagonists of arginine vasopressin receptor 1a (AVPR1a): fluorescence-based cell-based dose response AVPR1b inhibition counterscreen assay.; type: functional
[16] = target: Vasopressin V2 receptor (Homo sapiens, UniProt P30518); assay: Late-stage results from the probe development effort to identify antagonists of arginine vasopressin receptor 1a (AVPR1a): fluorescence-based cell-based dose response AVPR2 inhibition counterscreen assay.; type: functional
[17] = Late-stage results from the probe development effort to identify antagonists of arginine vasopressin receptor 1a (AVPR1a): fluorescence-based cell-based dose response AVPR1a inhibition assay.; type: functional
[18] = HIV-1 Vif–A3G interaction blockers – biochemical, TR-FRET, GST-Vif 1-94, biotin-A3G peptide, dose response retest, primary screen (AID 1117319); type: functional;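 note: TR-FRET signal of purified GST-Vif binding a biotinylated A3G peptide; inhibitors lower the FRET signal by blocking Vif and A3G binding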
[19] = target: DNA damage-inducible transcript 3 protein (Mus musculus, UniProt P35639); type: functional, Cricetulus griseus
[20] = viability loss in Vero cells – cytotoxicity control for Vif-APOBEC3G degradation inhibitor project, dose response (AID 1117358); type: functional; details: Vero

E3 ubiquitin-protein ligase Mdm2, sequence (Q00987 whole entry): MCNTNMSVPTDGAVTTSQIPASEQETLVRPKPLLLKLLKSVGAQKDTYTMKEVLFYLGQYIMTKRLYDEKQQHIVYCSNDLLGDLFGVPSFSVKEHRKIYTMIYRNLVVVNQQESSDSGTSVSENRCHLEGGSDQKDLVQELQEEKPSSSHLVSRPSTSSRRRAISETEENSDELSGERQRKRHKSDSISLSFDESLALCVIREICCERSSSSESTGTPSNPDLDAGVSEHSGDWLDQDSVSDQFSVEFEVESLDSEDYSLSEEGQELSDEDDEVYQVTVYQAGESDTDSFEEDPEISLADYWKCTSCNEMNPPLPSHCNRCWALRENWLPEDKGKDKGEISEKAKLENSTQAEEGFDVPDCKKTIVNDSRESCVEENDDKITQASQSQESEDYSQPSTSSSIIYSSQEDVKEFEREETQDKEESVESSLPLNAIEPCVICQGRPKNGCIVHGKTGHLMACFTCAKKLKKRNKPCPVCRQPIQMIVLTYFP
Vasopressin V1b receptor, sequence (P47901 whole entry): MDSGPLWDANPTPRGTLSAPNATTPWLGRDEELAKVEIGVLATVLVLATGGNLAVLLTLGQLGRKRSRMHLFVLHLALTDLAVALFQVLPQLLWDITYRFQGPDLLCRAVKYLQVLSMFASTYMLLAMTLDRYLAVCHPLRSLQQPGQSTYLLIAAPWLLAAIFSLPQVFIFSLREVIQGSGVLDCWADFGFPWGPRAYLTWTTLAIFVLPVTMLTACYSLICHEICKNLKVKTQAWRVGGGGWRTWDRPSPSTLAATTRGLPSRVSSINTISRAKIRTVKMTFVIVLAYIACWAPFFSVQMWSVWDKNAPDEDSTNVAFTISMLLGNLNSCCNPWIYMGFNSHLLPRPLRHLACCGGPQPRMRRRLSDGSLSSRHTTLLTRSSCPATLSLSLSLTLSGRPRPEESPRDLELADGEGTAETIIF
Vasopressin V2 receptor, sequence (P30518 whole entry): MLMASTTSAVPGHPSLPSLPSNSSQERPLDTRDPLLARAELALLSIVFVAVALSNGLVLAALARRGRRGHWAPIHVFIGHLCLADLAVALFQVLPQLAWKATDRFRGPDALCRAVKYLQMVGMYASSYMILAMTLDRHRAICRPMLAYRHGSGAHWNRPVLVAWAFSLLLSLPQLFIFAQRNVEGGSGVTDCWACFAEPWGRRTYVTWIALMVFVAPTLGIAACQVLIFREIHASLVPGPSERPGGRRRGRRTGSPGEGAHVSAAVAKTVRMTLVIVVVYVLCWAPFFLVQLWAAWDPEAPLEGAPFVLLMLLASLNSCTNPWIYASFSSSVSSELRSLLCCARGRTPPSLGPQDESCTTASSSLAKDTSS
DNA damage-inducible transcript 3 protein, sequence (P35639 whole entry): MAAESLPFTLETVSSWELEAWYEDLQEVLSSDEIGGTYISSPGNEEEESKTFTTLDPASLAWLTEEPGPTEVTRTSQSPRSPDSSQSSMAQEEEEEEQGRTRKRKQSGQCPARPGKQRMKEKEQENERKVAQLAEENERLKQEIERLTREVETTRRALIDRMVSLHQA

## O=C(NCC[C@H]1CC[C@H](NC(=O)c2ccccc2F)[C@@H](CO)O1)c1cnccn1
[1]
  AC50: 11 µM (active)

## COc1ccc(/C=C/C(=O)Nc2ccc(C34CC5CC(CC(O)(C5)C3)C4)cc2)cc1OC
[2]
  CC50: 20.9 µM (active)
[3]
  IC50: > 67.5 µM (inactive)
[4]
  AC50: 647 nM (active)
[5]
  IC50: 5.21 µM (active)
[6]
  EC50: 3.12 µM (not active)
[7]
  IC50: 2.17 µM (active)
[8]
  CC50: 1.48 µM (active)
[9]
  IC50: > 834 nM (active)

## C[C@@H](O)C#Cc1ccc2c(c1)O[C@@H](CN(C)Cc1ccccc1)[C@@H](C)CN([C@@H](C)CO)S2(=O)=O
[10]
  AC50: > 60 µM (inactive)

## O=C(NC(C(=O)N/N=C/c1c2ccccc2cc2ccccc12)c1nnc(O)c2ccccc12)c1ccccc1 (configuration not stated)
[11]
  IC50: > 20 µM (inactive)

## COc1ccc(CCN(C)CCCN2CC(c3ccccc3)CC2=O)cc1OC (configuration not stated)
[12]
  IC50: > 109 µM (inactive)
[13]
  IC50: > 83.3 µM (inactive)

## O=C(N1CCC2(CC1)OCc1ccccc12)N(CC1CC1)c1ccccc1
[14]
  IC50: 20 µM (inactive)
[15]
  IC50: 25.1 µM (inactive)
[16]
  IC50: 20 µM (inactive)
[17]
  IC50: 466 nM (active)

## Cc1nc2nc(C)c(CCC(=O)NC3CCCCC3)c(C)n2n1
[12]
  IC50: > 109 µM (inactive)
[13]
  IC50: > 83.4 µM (inactive)

## Oc1ccc(Cl)cc1-c1cc(-c2ccccc2)[nH]n1
[18]
  IC50: > 100 µM (active)
[19]
  Absolute IC50 (CHOP): 10 µM
[20]
  CC50: > 40 µM (active)

## Cc1cccc(N2CCC(C(=O)N(CC3CC3)c3ccc(Cl)cc3)CC2)n1
[14]
  IC50: 5.1 µM (active)
[15]
  IC50: 17.6 µM (inactive)
[16]
  IC50: 6.1 µM (active)
[17]
  IC50: 24.8 nM (active)

## CC1=C(C(=O)NC(C)CCc2ccccc2)C2(CCC(C)CC2)OC1=O (configuration not stated)
[6]
  EC50: 78.3 µM (not active)

Source: ChEMBL document CHEMBL1201862, “PubChem BioAssay data set” (2004)
